According to paper PMC12379310 (Virology Journal, 2025):

Biological target: human ether-α-go-go related gene (hERG) potassium channel (Kv11.1) (Homo sapiens, UniProt Q12809)
Experiment: automated whole-cell patch clamp
Assay type: cell-based

Chain of human ether-α-go-go related gene (hERG) potassium channel (Kv11.1) (Q12809 whole entry): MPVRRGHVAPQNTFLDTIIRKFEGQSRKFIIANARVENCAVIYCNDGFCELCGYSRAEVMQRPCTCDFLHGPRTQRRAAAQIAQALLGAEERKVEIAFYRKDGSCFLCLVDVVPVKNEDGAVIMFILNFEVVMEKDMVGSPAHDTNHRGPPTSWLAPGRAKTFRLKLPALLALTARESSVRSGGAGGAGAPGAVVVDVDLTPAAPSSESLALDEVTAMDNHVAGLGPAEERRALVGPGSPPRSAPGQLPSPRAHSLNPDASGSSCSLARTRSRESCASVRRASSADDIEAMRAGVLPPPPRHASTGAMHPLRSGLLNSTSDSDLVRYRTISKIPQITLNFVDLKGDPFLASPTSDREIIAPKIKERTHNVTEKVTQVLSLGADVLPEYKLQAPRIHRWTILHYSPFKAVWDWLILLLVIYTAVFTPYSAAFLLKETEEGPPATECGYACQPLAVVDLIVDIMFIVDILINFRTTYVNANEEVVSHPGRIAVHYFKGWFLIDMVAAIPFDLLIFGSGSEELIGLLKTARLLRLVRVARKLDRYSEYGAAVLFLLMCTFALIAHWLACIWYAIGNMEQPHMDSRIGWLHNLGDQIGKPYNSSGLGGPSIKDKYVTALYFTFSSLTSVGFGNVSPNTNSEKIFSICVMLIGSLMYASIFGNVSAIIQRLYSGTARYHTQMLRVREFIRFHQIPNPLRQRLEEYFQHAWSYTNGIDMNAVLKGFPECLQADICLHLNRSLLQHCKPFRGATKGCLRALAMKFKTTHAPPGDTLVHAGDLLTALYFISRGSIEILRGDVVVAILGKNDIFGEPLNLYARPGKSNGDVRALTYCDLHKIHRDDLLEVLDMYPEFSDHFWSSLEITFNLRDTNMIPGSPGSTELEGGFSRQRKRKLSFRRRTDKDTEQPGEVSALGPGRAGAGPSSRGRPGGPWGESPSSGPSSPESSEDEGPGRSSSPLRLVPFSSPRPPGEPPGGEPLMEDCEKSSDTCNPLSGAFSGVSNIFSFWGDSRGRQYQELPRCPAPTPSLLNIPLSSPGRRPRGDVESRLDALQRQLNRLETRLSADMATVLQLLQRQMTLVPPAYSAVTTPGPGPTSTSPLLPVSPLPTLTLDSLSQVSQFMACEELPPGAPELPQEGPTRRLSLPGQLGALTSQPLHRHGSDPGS

CCOC(=O)c1c(CSc2ccccc2)n(C)c2cc(Br)c(O)c(CN(C)C)c12 [Arbidol]
IC50: 303 nM
